From patent US20240335425A1, “PHARMACEUTICAL COMPOSITIONS OF ALPHA-2-ADRENERGIC RECEPTOR AGONISTS AND THEIR USE FOR IMPROVING VISION” (Allergan, Inc., priority 2020, published 2024)
Read-outs that look alike come from different tables or passages of the source.

Columns and labels:
[1] = Method: Aliquots of the PBS only curve were quenched at time zero to be used as stability controls and calibration standards. Following centrifugation, samples were analyzed by LC-MS/MS bioanalysis. Back-calculated concentrations using the assay PBS curve were used for binding and stability calculations.
[2] = molecular target: T1, bovine alpha adrenergic 1A receptor (Bos taurus, UniProt P18130); assay: FLIPR calcium assay, HEK293 cells stably expressing bovine alpha 1A receptor; assay type: cell-based; settings: HEK293 stable cell line, peak calcium signal; read-out: bovine alpha1A EC50 (nm)
T1 construct: expressed in transfected cells
T1 sequence (P18130 1-466): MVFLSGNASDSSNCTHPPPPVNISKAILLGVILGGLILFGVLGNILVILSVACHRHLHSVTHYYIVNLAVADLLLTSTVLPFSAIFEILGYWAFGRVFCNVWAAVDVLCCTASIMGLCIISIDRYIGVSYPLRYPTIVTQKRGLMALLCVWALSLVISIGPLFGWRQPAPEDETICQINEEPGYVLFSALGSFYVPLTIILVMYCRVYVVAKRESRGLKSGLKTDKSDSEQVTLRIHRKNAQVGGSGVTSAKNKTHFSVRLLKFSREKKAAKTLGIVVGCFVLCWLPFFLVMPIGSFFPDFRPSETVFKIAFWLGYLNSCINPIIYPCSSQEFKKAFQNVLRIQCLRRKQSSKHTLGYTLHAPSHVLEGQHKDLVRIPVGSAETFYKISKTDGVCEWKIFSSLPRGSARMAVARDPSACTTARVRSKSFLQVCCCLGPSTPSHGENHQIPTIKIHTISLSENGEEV
Method: (§1) An in vitro FLIPR (fluorometric image plate reader) assay was performed on several compounds, including the compound of Formula I (entry 1 in Table 1).
Specifically, four HEK293 stable cell lines were used in the FLIPR assay. The HEK293 cell line which stably expressed the bovine alpha adrenergic 1A receptor was used to characterize the alpha1 pharmacology. The alpha-2 adrenergic receptor family is a G coupled G-protein receptor. Therefore, in order to use these cell lines in the calcium based FLIPR assay, the chimeric G-protein Gqi5 was used to force the coupling of the human alpha-2A, alpha-2B, and alpha-2C receptors to the calcium pathway. […]
(§2) The receptor activation was initiated by the addition of the appropriate dilutions of compounds and the transient calcium signal was captured. The peak height of the calcium curve was determined and utilized for calculation of EC50 and relative efficacy values using Activity Base software. EC50 was calculated using a 4 Parameter Logistic Equation: y=A+((B−A)/(1+((C/x)^D))) where A and B represents the bottom and top plateau of the curve; C represents the EC50 value; D represents the slope factor; and x and y represent the original x (drug concentration) and y (fluorescence signal, RFU) values.

[3] = molecular target: T2, human alpha-2A receptor (Homo sapiens, UniProt P08913); assay: FLIPR calcium assay, HEK293 cells with human alpha-2A receptor coupled via chimeric Gqi5; assay type: cell-based
T2 construct: expressed in transfected cells
T2 sequence (P08913 1-465): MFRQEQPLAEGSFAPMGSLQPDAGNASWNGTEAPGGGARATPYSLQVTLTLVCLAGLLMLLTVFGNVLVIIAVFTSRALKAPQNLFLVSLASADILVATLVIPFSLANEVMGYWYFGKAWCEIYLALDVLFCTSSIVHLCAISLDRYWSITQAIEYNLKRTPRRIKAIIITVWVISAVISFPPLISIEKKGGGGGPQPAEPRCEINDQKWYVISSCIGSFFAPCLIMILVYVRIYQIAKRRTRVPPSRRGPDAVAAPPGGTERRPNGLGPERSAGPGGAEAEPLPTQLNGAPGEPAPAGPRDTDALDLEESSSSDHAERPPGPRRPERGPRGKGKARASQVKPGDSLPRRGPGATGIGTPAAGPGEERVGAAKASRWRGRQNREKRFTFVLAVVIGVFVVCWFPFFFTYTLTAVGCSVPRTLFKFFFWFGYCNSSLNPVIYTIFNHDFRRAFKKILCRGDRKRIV
Method: as §1
Specifically, four HEK293 stable cell lines were used in the FLIPR assay. The HEK293 cell line which stably expressed the bovine alpha adrenergic 1A receptor was used to characterize the alpha1 pharmacology. The alpha-2 adrenergic receptor family is a G coupled G-protein receptor. Therefore, in order to use these cell lines in the calcium based FLIPR assay, the chimeric G-protein Gqi5 was used to force the coupling of the human alpha-2A, alpha-2B, and alpha-2C receptors to the calcium pathway. Cells were plated, in triplicate, in poly-D-lysine coated 384-well plates at 25,000 cells per well and grown overnight in DMEM supplemented with 10% fetal bovine serum. For FLIPR evaluation, cells were washed twice with HBSS/HEPES buffer (1× Hanks Buffered Salt Solution, 20 mM HEPES, pH 7.4) prior to the addition of Fluo-4-AM (4 uM Fluo-4-AM, 0.04% pluronic acid in HBSS/HEPES buffer), a calcium-sensitive dye. Cells were loaded with dye for 40 minutes at 37° C., and then washed 4 times with HBSS/HEPES buffer to remove the excess dye. The test compounds were profiled at concentrations between 0.64 nM and 10,000 nM using a […] dilution factor.
as §2

[4] = system: participants diagnosed with presbyopia; assay: Clinical Study 2 in presbyopes, once daily for 14 days; assay type: in vivo, human
Excerpt: In this study, approximately 108 participants diagnosed with presbyopia (male and female; 40 to 65 years of age) are selected to participate.
Cohorts 4, 5, and 6 (Part A) are multiple ascending dose cohorts in which participants are randomized to receive either the compound of Formula I at doses ranging from 0.01% to 0.1% or vehicle once daily in both eyes for 14 days. Each cohort in Part A consists of 9 participants who receive active intervention (the compound of Formula I) and 3 participants that receive vehicle in order to evaluate safety, tolerability, pharmacokinetics, and clinical efficacy of the compound of Formula I. As with Example 8, after each cohort is completed, the independent data monitoring committee reviews the safety, pharmacokinetic, and target engagement data to determine if it is acceptable to proceed to the next planned dosing cohort. The dose of the compound of Formula I in Part B (Cohorts 7 and 8) is selected by the data monitoring committee after Cohort 6 has completed.
Cohort 7 is a single-masked, active comparator cohort that includes approximately 60 masked participants with presbyopia randomized 1:1 to receive either pilocarpine 1.25% (w/v) ophthalmic solution or an ophthalmic solution of the compound of Formula I administered at the dose strength recommended by the data monitoring committee for 14 days. Safety, tolerability, and efficacy is assessed after topical ocular administration of the compound of Formula I compared with pilocarpine 1.25%. Common adverse events associated with pilocarpine (particularly when administered to the eye) include, for example, headache, brow ache, accommodative change, eye irritation, eye pain, blurred vision, visual impairment, ocular blurring, ocular discomfort, blurry vision, light sensitivity, stinging, and itching.
Cohort 8 is a cohort to evaluate safety, tolerability, pharmacokinetics, and efficacy of the compound of Formula I administered at the dose strength recommended by the data monitoring committee compared with vehicle for 14 days in participants with presbyopia who wear contact lenses (9 participants receive the compound of Formula I and 3 participants receive vehicle).
In all cohorts of this study (Cohorts 4 to 8), participants receive their first dose in clinic on Day 1, and stay in clinic for safety, pharmacokinetic, and efficacy evaluations for 10 hours post-dose. The participants then return for dosing and safety evaluations once daily from Day 2 to Day 7. They then receive multidose bottles for single unit of use for at-home dosing from Days 8 to 13 and return to the clinic on Day 14 for dosing as well as safety, tolerability, pharmacokinetic (Cohorts 4 to 6, and 8 only), and efficacy evaluations for 10 hours post-dose. On Day 30, participants return for a safety follow-up and close out visit.
In Parts A and B of this study, safety and tolerability are evaluated as in Example 12 (i.e. by monitoring participants in the three cohorts for exhibition/reporting of adverse events and monitoring the characteristics/assessments as are monitored in Example 12), with the additional characteristics/assessments of contrast sensitivity, photopic (e.g. ≥80 cd/m^2; 251 lux at target) and mesopic (e.g. 3.2 to 3.5 cd/m^2; 10 to 11 lux at target) high contrast corrected distance visual acuity (each eye and binocularly), manifest refraction (mesopic and photopic) also being measured in Part A. Systemic and local pharmacokinetics of the compound of Formula I are evaluated by measuring plasma and tear concentrations of the compound of Formula I in the participants and also determining pharmacokinetic parameters as is done in Example 12. Target engagement is measured by measuring the pupil size of the participants during the study as is done in Example 12. […]

[5] = system: healthy participants; assay: Clinical Study 1 in healthy individuals, single ascending dose; assay type: in vivo, human; settings: left eye, 0.01% to 0.1% (w/v)
Excerpt: In this study, 36 healthy participants (male and female; 40 to 65 years of age) are randomized to participate in single-ascending dose cohorts (designated Cohorts 1, 2, and 3 as shown in Table 9 below) to evaluate safety, tolerability, pharmacokinetics, and target engagement of the compound of Formula I. In each cohort of this study 12 participants are randomized in a 3:1 ratio to receive an ophthalmic solution containing the compound of Formula I (9 participants) or vehicle (3 participants). Participants that are randomized to receive the ophthalmic solution containing the compound of Formula I are administered a single drop of the ophthalmic solution containing the compound of Formula I at doses ranging from 0.01% (w/v) to 0.1% (w/v) (Formulations A-C; see Examples 8-10), with the option of also using a 0.3% (w/v) dose (Formulation D; see Example 11), in the left eye, as indicated in Table 7 below (“SD” means single dose and “OS” means left eye).
Each participant is admitted to the study site on the evening before dosing (Day −1). […]
Safety and tolerability are evaluated by monitoring participants in the three cohorts of this study for exhibition/reporting of adverse events and monitoring characteristics/assessments such as vital signs, electrocardiogram measurements, clinical laboratory assessments, study intervention tolerability and drop comfort assessments, intraocular pressure measurements, slit-lamp biomicroscopy, and dilated funduscopic examination. Systemic and local pharmacokinetics of the compound of Formula I are evaluated by measuring plasma and tear concentrations of the compound of Formula I in the participants and also determining pharmacokinetic parameters such as area under the curve, clearance, half-life, maximum concentration, time to maximum concentration. Target engagement is measured by measuring the pupil size of the participants during the study. […]

[6] = system: Dutch Belted rabbits; assay: In vivo rabbit miosis model (pupil diameter after single topical dose); settings: for animals with greater than 2.5 mm reduction in pupil size from baseline: 0.1% w:v, scotopic (<10 lux), n=6; for miotic efficacy compared with other alpha adrenergic receptor agonists: low-light conditions (2-10 Lux)
Method: Female Dutch Belted rabbits (Covance, Princeton, New Jersey) weighing between 2-4 kg were used for these studies. […] For topical dosing, eye drops (volume=35 μl) were instilled into the lower conjunctival sac of the test eye.
Pupil diameter was measured in both the treated and untreated eye with an Optistick to the nearest 0.5 mm. […]

[7] = system: presbyopic patients; settings: different lighting conditions; cited from earlier work
[8] = HEK293 stable cell line with Gqi5, peak calcium signal, read-out: human alpha2A EC50 (nm)
[9] = Part A, bilaterally for 14 days
[10] = Part B, Cohort 8, contact lens wearers, 14 days

Structure (SMILES): Cc1c(N=C2NCCN2)ccc2[nH]cnc12 [Compound 1]
- melanin binding (in words) [1]: no significant melanin binding
- EC50 [2]: 286 nM
- EC50 [3, 8]: 0.7 nM
- depth of focus compared with vehicle [4, 9]: improved depth of focus
- distance corrected near visual acuity compared with vehicle [4, 9]: numeric improvement (e.g. two or three lines)
- patient reported outcome questionnaires/questions compared with vehicle [4, 9]: more positive answers
- pupil diameter compared with vehicle [4, 9]: decrease in pupil diameter
- systemic exposures [4, 9]: sufficient safety margins
- safety and tolerability ([4]; Part A, bilaterally for 14 days, 0.01% to 0.1%): acceptable (or improved) safety and tolerability profiles
- safety and tolerability compared with 1.25% (w/v) pilocarpine ([4]; Part B, Cohort 7): acceptable (or improved
- depth of focus compared with vehicle [4, 10]: improved depth of focus
- distance corrected near (and/or intermediate) visual acuity compared with vehicle [4, 10]: numeric improvement (e.g. two or three lines)
- patient reported outcome questionnaires/questions compared with vehicle [4, 10]: more positive answers
- safety and tolerability ([4]; Part B, both cohorts, bilaterally for 14 days): acceptable safety and tolerability profiles
- pupil diameter compared with vehicle [5]: decrease in pupil diameter
- safety and tolerability [5]: acceptable safety and tolerability profiles
- systemic exposures [5]: sufficient safety margins
- animals with greater than 2.5 mm reduction in pupil size from baseline ([6]; after 6 hours): more than half
- animals with greater than 2.5 mm reduction in pupil size from baseline ([6]; two hours after dosing): virtually all animals
- miotic action (peak pupil constriction and duration) ([6]; room lighting conditions, versus brimonidine): greater miotic action than brimonidine
- effect on pupil constriction compared to Compound 3 ([6]; topical dose): greater effect on pupil constriction
- pupil constriction at 9 hours after dosing ([6]; topical dose, 9 hours): significant pupil constriction
- miotic efficacy compared with other alpha adrenergic receptor agonists ([6]; topical dose): best miotic effect

Structure (SMILES): CCc1c(N=C2NCCN2)ccc2[nH]cnc12 [Compound 2, reference compound]
- EC50 [3]: 11 nM
- miotic efficacy compared with other alpha adrenergic receptor agonists ([6]; topical dose): much less than brimonidine

Structure (SMILES): Brc1c(NC2=NCCN2)ccc2nccnc12 [Compound 4, brimonidine, reference compound]
- melanin binding (in words) [1]: much more significant binding
- EC50 [2]: 1200 nM
- average pupil size after brimonidine [7]: 3.4 mm
- animals with greater than 2.5 mm reduction in pupil size from baseline ([6]; after 6 hours): virtually none of the animals
- animals with greater than 2.5 mm reduction in pupil size from baseline ([6]; half hour after dosing): much less than half of the animals

Structure (SMILES): Brc1c(N=C2NCCN2)ccc2[nH]cnc12 [Compound 3, reference compound]
- EC50 [3, 8]: 1 nM
- miotic efficacy compared with other alpha adrenergic receptor agonists ([6]; topical dose): much less than brimonidine
